Test system: human platelet aggregation
Assay: Inhibitory effect on human platelet aggregation (collagen-induced, PRP, absorbance at 660 nm)
Assay type: cell-based
Conditions: concentration of collagen 2 µg/ml, 37 °C, read-out: percent inhibition of platelet aggregation (%); for inhibition at 10 µM: test drug 10 µM; for inhibition at 100 µM: test drug 100 µM
Description: Inhibitory effect on human platelet aggregation
Using a syringe filled with 2.5 ml of sodium citrate solution (Citrate for erythrocyte sedimentation test (Kokusai) distributed by Green Cross Corporation) beforehand, human blood was collected in a total quantity of 25 ml and stirred well. The blood was then centrifuged at 200× g for 10 minutes and the supernatant was recovered as a PRP (platelet-rich plasma).
Horse tendon collagen [HORMON-CHEMIE MÜNCHEN GMBH, collagen reagent (Holm)] was previously diluted to 10 and 20 µg /ml with the accompanying buffer.
Each test drug was diluted with PBS and its concentration (mM) was estimated from ultraviolet absorption.
The assay for platelet aggregation was carried out with NKK HEMA TRACER 1 (Nikko Bioscience). The cell was filled with 0.2 ml of PRP and 0.025 ml of the test drug solution and the absorbance was measured at a constant temperature of 37 °C. Then, 0.025 ml of the above collagen solution was added and the absorbance was measured (wavelength 660 nm). The percent inhibition of platelet aggregation (%) was calculated by means of the following equation. [formula] [ ] represents the absorbance.

| Compound | inhibition at 10 µM | inhibition at 100 µM |
| --- | --- | --- |
| Nc1nc2c(nc(Br)n2[C@@H]2O[C@@H]3COP(=O)(O)O[C@H]3[C@H]2O)c(=O)[nH]1 [Example 8-Br-c-GMP, 8-bromocyclic GMP] | 2.9% | 49% |
| Nc1nc2c(ncn2[C@@H]2O[C@@H]3COP(=O)(O)O[C@H]3[C@H]2O)c(=O)[nH]1 [c-GMP, cyclic GMP] | 4% | 23% |

From EP0533926A1, “[…]” (NIPPON SHINYAKU COMPANY, LIMITED, priority 1990, dated 1991)
